# Test results reported in patent US20120295920A1, “5-AMINO-4-HYDROXYPENTOYL AMIDES” (priority 2009, published 2012).
# Like-named read-outs stand apart in the source and are kept apart here.
# Assays:
# HIV-1 wild-type strain = test: General antiviral assay, cell-based virus replication in MT4-LTR-EGFP cells, wild-type strain; conditions: wild-type strain IIIB, MT4-LTR-EGFP cells
# Outline: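 HIV LTR-driven EGFP reporter MT4 cells (150,000 cells/ml) infected at MOI 0.0025 with or without inhibitor at various concentrations. Read-out either GFP fluorescence on day 3 post-infection or resazurin cell viability on day 4.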
# [1] = tested on: HIV-1 Strain A (M046I, I084V); test: microbe, parasite or virus in culture; format: cell-based
# Outline: (§1)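 MT4 cells stably carrying an HIV LTR-driven EGFP reporter (150,000 cells/ml) were infected at MOI 0.0025 with or without inhibitor dilutions. Replication was read either as GFP fluorescence on day 3 post-infection or as cell viability by resazurin on day 4.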
# [2] = tested on: HIV-1 Strain B (M046I, I050V); test: microbe, parasite or virus in culture; format: cell-based
# Outline: as §1
# [3] = tested on: HIV-1 Strain C (G048G/V, V082A); test: microbe, parasite or virus in culture; format: cell-based
# Outline: as §1
# [4] = General toxicity assay on mock-infected MT4 cells with CMV-EGFP reporter (CC50); format: cell-based; conditions: human; mock-infected MT4 cells with CMV-EGFP reporter; read-out: TOX-MT4CMV (CC50)
# HIV-1 IIIB = test: 50% HS-Rezazurin: antiviral assay in the presence of 50% human serum, MT-4 cells, resazurin cell viability; format: cell-based
# Outline: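 MT-4 cells infected with HIV-1 IIIB (MOI 0.001 to 0.01 CCID50/cell) for 1 h, washed, then plated onto serial compound dilutions in 50% human serum (10% FCS alternative). After 4 days, EC50 derived from resazurin cell viability.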
# mock-infected MT4 cells = test: General toxicity assay on mock-infected MT4 cells with CMV-EGFP reporter (CC50); format: cell-based
# [5] = clinical isolate Strain A, read-out: A EC50
# [6] = clinical isolate Strain B, read-out: B EC50
# [7] = clinical isolate Strain C, read-out: C EC50
# [8] = MT4LTR cells, read-out: TOX-MT4LTR (CC50)
# [9] = mock-infected MT4 cells with CMV-EGFP reporter, read-out: TOX-MT4CMV (CC50)
Compound,EC50 (HIV-1 wild-type strain; Human immunodeficiency virus 1) [nM],"EC50 ([1]; Human immunodeficiency virus 1, read-out: A EC50) [nM]","EC50 ([2]; Human immunodeficiency virus 1, read-out: B EC50) [nM]","EC50 ([3]; Human immunodeficiency virus 1, read-out: C EC50) [nM]",CC50 [4] [nM],"EC50 (HIV-1 IIIB; Human immunodeficiency virus 1, IIIB, MT4, 96 h) [nM]",EC50 (HIV-1 wild-type strain) [nM],"EC50 [1, 5] [nM]","EC50 [2, 6] [nM]","EC50 [3, 7] [nM]",CC50 (mock-infected MT4 cells; [8]) [nM],CC50 (mock-infected MT4 cells; [9]) [nM],EC50 (HIV-1 IIIB) [nM]
COC(=O)N[C@H](C(=O)N[C@@H](Cc1ccc(-c2cc(C)nc(C)c2)cc1)[C@@H](O)C[C@@H](Cc1cccc(Cl)c1)C(=O)N[C@H]1c2ccccc2OC[C@H]1O)C(C)(C)C [Compound 4],5.6,3.9,3.9,2.7,> 32000,31.2,,,,,,,
COC(=O)N[C@H](C(=O)N[C@@H](Cc1ccc(-c2ccc(OC)nc2)cc1)[C@@H](O)C[C@@H](Cc1ccccc1Cl)C(=O)N[C@H]1c2cc(F)ccc2OC[C@H]1O)C(C)(C)C [Compound 67],,,,,,,2.9,2.1,1.2,1,> 32000,> 32000,5.3
COC(=O)N[C@H](C(=O)N[C@@H](Cc1ccc(-c2ccc(OC)nc2)cc1)[C@@H](O)C[C@@H](Cc1cccc(F)c1)C(=O)N[C@H]1c2ccc(F)cc2OC[C@H]1O)C(C)(C)C [Compound 85],,,,,,,2.9,3,1.3,1.1,> 32000,> 32000,17.5
COC(=O)NC(C(=O)NC(Cc1ccc(-c2ccc(N(C)C)nc2)cc1)C(O)CC(Cc1cccc(Cl)c1)C(=O)NC1c2cc(F)ccc2OCC1O)C(C)(C)C (centres unmarked) [Compound 13],,,,,,,4.7,4.6,3,2.4,,> 32000,22.6
COCCNC(=O)[C@@H](NC(=O)[C@H](Cc1ccccc1Cl)C[C@H](O)[C@H](Cc1ccc(-c2ccc(OC)nc2)cc1)NC(=O)[C@@H](NC(=O)OC)C(C)(C)C)C(C)(C)C [Compound 98],,,,,,,2.1,3.7,1,2.2,> 32000,,11.2
COc1ccc(-c2ccc(C[C@H](NC(=O)O[C@H]3CO[C@H]4OCC[C@H]43)[C@@H](O)C[C@@H](Cc3ccccc3Cl)C(=O)N[C@H]3c4cc(F)ccc4OC[C@H]3O)cc2)cn1 [Compound 77],,,,,,,1.9,1.6,1,0.7,> 32000,,6.5
COC(=O)N[C@H](C(=O)N[C@@H](Cc1ccc(-c2ccc(OC)nc2)cc1)[C@@H](O)C[C@@H](Cc1ccccc1Cl)C(=O)N[C@H]1c2ccsc2CC[C@H]1O)C(C)(C)C [Compound 95],,,,,,,1.5,2.2,1.3,1,23000,,5.9
COC(=O)NC(C(=O)NC(Cc1ccc(-c2ccc(N(C)C)nc2)cc1)C(O)CC(Cc1ccccc1F)C(=O)NC1c2cc(Cl)ccc2OCC1O)C(C)(C)C (centres unmarked) [Compound 8],,,,,,,1.8,2,1.2,1,> 49000,> 32000,12.4
COc1cccc(C[C@H](C[C@H](O)[C@H](Cc2ccc(-c3csc(N(C)C)n3)cc2)NC(=O)O[C@H]2CO[C@H]3OCC[C@H]32)C(=O)N[C@H]2c3cc(Cl)ccc3OC[C@H]2O)c1 [Compound 71],,,,,,,2.1,2.2,2.3,1,> 32000,> 32000,10.9
COC(=O)NC(C(=O)NC(Cc1ccc(-c2ccc(OC)nc2)cc1)C(O)CC(Cc1ccccc1F)C(=O)NC1c2cc(Cl)ccc2OCC1O)C(C)(C)C (centres unmarked) [Compound 18],,,,,,,2.7,3,2,1.6,> 32000,> 32000,14
COC(=O)N[C@H](C(=O)N[C@@H](Cc1ccc(-c2ccc(N(C)C)nc2)cc1)[C@@H](O)C[C@@H](Cc1cccc(F)c1)C(=O)N[C@H]1c2ccccc2OC[C@H]1O)C(C)(C)C [Compound 36],,,,,,,2.9,2.4,1.4,1.3,> 32000,> 32000,14.3
COC(=O)NC(C(=O)NC(Cc1ccc(-c2ccc(OC)nc2)cc1)C(O)CC(Cc1cccc(OC)c1)C(=O)NC1c2ccccc2OCC1O)C(C)(C)C (centres unmarked) [Compound 17],,,,,,,1.9,2,1.2,1.1,,> 32000,6.4
COC(=O)N[C@H](C(=O)N[C@@H](Cc1ccc(-c2cnc(N(C)C)nc2)cc1)[C@@H](O)C[C@@H](Cc1ccccc1Cl)C(=O)N[C@H]1c2cc(F)ccc2OC[C@H]1O)C(C)(C)C [Compound 63],,,,,,,1.5,1.2,0.7,0.6,> 32000,,9.4
COC(=O)NC(C(=O)NC(Cc1ccc(-c2ccc(OC)nc2)cc1)C(O)CC(Cc1ccccc1F)C(=O)NC1C(C)CCC1O)C(C)(C)C (centres unmarked) [Compound 99],,,,,,,1.1,1.7,0.6,0.9,> 32000,,3.3
COCCNC(=O)[C@@H](NC(=O)[C@H](Cc1cccc(F)c1)C[C@H](O)[C@H](Cc1ccc(-c2ccc(OC)nc2)cc1)NC(=O)[C@@H](NC(=O)OC)C(C)(C)C)C(C)(C)C [Compound 92],,,,,,,2.6,4.2,1.8,2.9,> 32000,> 32000,8.4
COC(=O)NC(C(=O)NC(Cc1ccc(-c2cc(C)nc(C3CC3)c2)cc1)C(O)CC(Cc1ccccc1F)C(=O)NC1c2cc(Cl)ccc2OCC1O)C(C)(C)C (centres unmarked) [Compound 21],,,,,,,6.1,3.8,3.2,3.6,,> 32000,34.9
COC(=O)N[C@H](C(=O)N[C@@H](Cc1ccc(-c2cccc(OC)n2)cc1)[C@@H](O)C[C@@H](Cc1ccccc1F)C(=O)N[C@H]1c2cc(Cl)ccc2OC[C@H]1O)C(C)(C)C [Compound 30],,,,,,,4,5.9,2.8,2.5,,> 32000,17.4
COC(=O)NC(C(=O)NC(Cc1ccc(-c2cnc(OC)cn2)cc1)C(O)CC(Cc1ccccc1F)C(=O)NC1c2cc(Cl)ccc2OCC1O)C(C)(C)C (centres unmarked) [Compound 23],,,,,,,3,3.7,2.4,2,,19000,12.3
COC(=O)N[C@H](C(=O)N[C@@H](Cc1ccc(-c2ccc(OC)nc2)cc1)[C@@H](O)C[C@@H](Cc1ccccc1Cl)C(=O)N[C@H]1[C@H](C)CCC[C@H]1O)C(C)(C)C [Compound 91],,,,,,,1.1,2.6,0.7,1,16000,17000,3.2
CNC(=O)[C@@H](NC(=O)[C@H](Cc1ccccc1F)C[C@H](O)[C@H](Cc1ccc(-c2ccc(OC)nc2)cc1)NC(=O)[C@@H](NC(=O)OC)C(C)(C)C)C(C)(C)C [Compound 88],,,,,,,3.4,4.8,2.8,3,,> 32000,9.9
COCCOC(=O)N[C@H](C(=O)N[C@@H](Cc1ccc(-c2ccc(OC)nc2)cc1)[C@@H](O)C[C@@H](Cc1ccccc1F)C(=O)N[C@H]1c2cc(Cl)ccc2OC[C@H]1O)C(C)(C)C [Compound 55],,,,,,,2.7,2.1,1.5,1.2,> 32000,,12.5
COC(=O)NC(C(=O)NC(Cc1ccc(-c2ccc(OC)nc2)cc1)C(O)CC(Cc1ccccc1F)C(=O)NC1c2cc(C)cc(F)c2OCC1O)C(C)(C)C (centres unmarked) [Compound 101],,,,,,,2.8,2.5,2.4,1.7,> 32000,,9.8
COC(=O)N[C@H](C(=O)N[C@@H](Cc1ccc(-c2cncc(N(C)C)n2)cc1)[C@@H](O)C[C@@H](Cc1ccccc1F)C(=O)N[C@H]1c2cc(Cl)ccc2OC[C@H]1O)C(C)(C)C [Compound 25],,,,,,,4.9,4.6,2.7,2.5,,> 32000,26.4
COC(=O)NC(C(=O)NC(Cc1ccc(-c2ccc(OC)nc2)cc1)C(O)CC(Cc1ccccc1F)C(=O)NC1c2ccccc2OCC1O)C(C)(C)C (centres unmarked) [Compound 16],,,,,,,2.5,2,1.3,1.1,,> 32000,6.6
COc1ccc(-c2ccc(C[C@H](NC(=O)O[C@H]3CO[C@H]4OCC[C@H]43)[C@@H](O)C[C@@H](Cc3ccccc3F)C(=O)N[C@H]3c4ccsc4CC[C@H]3O)cc2)cn1 [Compound 74],,,,,,,0.9,0.8,0.6,0.4,> 32000,,3.5
